Test results taken from patent US10093629B2, “Heterocyclic compounds and their use as retinoid-related orphan receptor (ROR) gamma-T inhibitors” (Takeda Pharmaceutical Company Limited, priority 2014, dated 2018).

What was measured:
[1] = system: IL-17 production in human blood; assay: Effect on IL-17 production in human blood; format: cell-based; settings: 72 h; 10 μM test compound; human peripheral blood, IL-23 and Dynabeads stimulation, 3 days; read-out: percent inhibition at 10 μM (IL-17 production)
Method in brief: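 Heparinized healthy-donor whole blood pre-incubated with compound 30 min at 37° C, then stimulated with IL-23 (added as 100 ng/mL solution) plus Dynabeads Human for 3 days at 37° C. Supernatant IL-17 measured by ELISA; values given as percent inhibition at 10 μM compound.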

[2] = system: IL-17A gene expression; assay: Effect on IL-23-induced cytokine expression in mice; format: in vivo, mouse; settings: 30 min before and 8 hr after IL-23, ear of Balb/c mice, versus the negative control group
Protocol: Effect on IL-23-Induced Cytokine Expression in Mice
A mouse IL-23 solution (500 ng/10 μL, prepared by Takeda Pharmaceutical Company Limited) or PBS (10 μL, negative control group) was administered intradermally in the ear of Balb/c mice (Charles River Japan, male, 7 weeks old). Twenty-four hr after administration, the ear was resected under isoflurane anesthesia. The test compound was suspended in 0.5% methylcellulose and administered orally 30 min before and 8 hr after IL-23 administration.
RNA extraction from the ear tissue and quantitative PCR were performed as follows. Specifically, ear tissue 5 mm in diameter was punched from an area of the resected ear centering on the IL-23 injection site, and the tissue was immersed in RNAlater (QIAGEN) for at least 18 hr. The RNAlater-treated ear tissue was homogenized in 350 μL of RLT buffer (RNeasy mini kit, QIAGEN) and treated (55° C., 10 min) with Proteinase K (QIAGEN). Total RNA was then extracted according to the RNeasy mini kit protocol. The RNA thus obtained was then reverse transcribed into cDNA using the High-Capacity RNA-to-cDNA kit (Applied Biosystems), and the amount of each gene expressions was measured by real-time PCR (Viia7™, Applied Biosystems). The PCR buffer used was TaqMan Fast Advanced Master Mix (Applied Biosystems), and TaqMan Gene Expression Assays (Applied Biosystems) Mm00439618_m1 (IL-17A) and 4352341E (β-actin) were used for each gene detection. The IL-17A gene expression level was normalized to the β-actin gene expression level, and the percent inhibition of IL-17A gene expression with the test compound was then calculated.
The results (percent inhibition of IL-17A gene expression with oral administration of the test compound) measured by the above-mentioned method are shown in Table 9.

[3] = system: IL-23-induced mouse psoriasis model; assay: IL-23-induced mouse psoriasis model; format: in vivo; settings: Balb/c mice, versus the negative control group; for percent inhibition of IL-17A expression: ear tissue
Protocol: Effect in an IL-23-Induced Mouse Psoriasis Model
Mouse IL-23 (500 ng/15 μL, R&D) or PBS (15 μL, negative control group) was administered intradermally in the ear of Balb/c mice (Charles River Japan, male, 7 weeks old) 5 times every other days. Seven hr after IL-23 administration at 8 days after the initial administration (final administration), the mice were anesthetized with isoflurane, and ear thickness was measured with calipers. After the ear thickness was measured, the ear was resected, tissue 8 mm in diameter was punched from an area centering on the IL-23 injection site, and the tissue was weighed. The punched ear tissue was cut in half, and one half was immersion-fixed in 10% neutral buffer formalin solution for use in histopathological evaluation. The other half was immersed in RNAlater (QIAGEN) for at least 18 hr for use in an evaluation of the IL-17A mRNA expression level. The test compound was suspended in 0.5% methylcellulose and administered orally twice daily on consecutive days from 30 min before the initial IL-23 administration to 30 min before the final IL-23 administration.
The change in ear thickness in this model was evaluated by calculating the difference in measured thickness between before IL-23 administration and 7 hr after the final IL-23 administration. In addition, the formalin-fixed tissue was embedded and sectioned, then stained with hematoxylin-eosin. The degree of acanthosis was then evaluated qualitatively by microscopy (classified with a score of 0 to 4). RNA extraction from the ear tissue and quantitative PCR were performed as follows. As described above, ear tissue treated with RNAlater (QIAGEN) was homogenized in 350 μL of RLT buffer (RNeasy mini kit, QIAGEN) and treated (55° C., 10 min) with Proteinase K (QIAGEN). Total RNA was then extracted according to the RNeasy mini kit protocol. The RNA thus obtained was reverse transcribed into cDNA using the High-Capacity RNA-to-cDNA kit (Applied Biosystems), and the expression of each gene was measured by real-time PCR (Viia7™, Applied Biosystems). The PCR buffer used was TaqMan Fast Advanced Master Mix (Applied Biosystems), and TaqMan Gene Expression Assays (Applied Biosystems) Mm00439618_m1 (IL-17A) and 4352341E (β-actin) were used to detect the genes. The IL-17A gene expression level was normalized to the β-actin gene expression level, and the percent inhibition of IL-17A gene expression with the test compound was then calculated.
The results (percent inhibition of ear thickness, acanthosis score and IL-17A gene expression with oral administration of the test compound) measured by the above-mentioned method are shown in Table 10.

[4] = system: T cell-transferred mouse colitis model; assay: T cell-transferred mouse colitis model; format: in vivo; settings: 3 mg/kg oral twice daily; SCID mice, 21 days after cell transfer; versus the negative control group
Excerpt: Effect in a T Cell-Transferred Mouse Colitis Model
Balb/c mice (Charles River Japan, female, 8 weeks old) were euthanized, and the spleens were resected, mashed in mesh, and passed through cell strainer to prepare a suspension of splenic cells. The mononuclear cell fraction in the splenic cells was isolated by density-gradient centrifugation, and subjected to hemolysis treatment with ammonium chloride buffer solution (Immuno-Biological Laboratories, Co., Ltd.). The naive T-cells were purified using CD4+CD62L+ T Cell Isolation Kit II (Miltenyi Biotec). The naive T-cells (2×10^5 cells/mouse) were intravenously transferred into SCIDmice (CLEA Japan, female, 8 weeks old). The compound was suspended in 0.5% methyl cellulose, and the suspension was orally administered twice daily on consecutive days from the same evening of the cell transfer. The mice were blinded 20 days after the cell transfer, and the symptom of the stool on floorcloth under blind was evaluated by scores of 1 to 4 (1: normal, 2: loose stool, 3: diarrhea (formed), 4: diarrhea (unformed)) 21 days after the cell transfer. […] The large intestine was washed with saline, and the weight was measured.
The results (percent inhibition of intestinal tract weight and diarrhea score with oral administration of the test compound) measured by the above-mentioned method are shown in Table 11.

[5] = system: mouse EAE model; assay: Mouse EAE model; format: in vivo; settings: 3 mg/kg oral; C57BL/6J mice; integration value of clinical score for 28 days; versus the negative control group
Protocol: Effect in a Mouse EAE Model
. C57BL/6J mice (10 weeks old, female, Charles River Japan) were grouped based on the body weight, and the MOG emulsion was intradermally administered at two point of the joint of dorsal hindlimb so that the dose was 100 μL/site, 200 μL/mouse. In addition, Pertussis toxin (Merck) was intraperitoneally administered twice on the sensitization day and 2 days thereafter in the dose of 400 ng/200 μL/mouse. The body weight was measured twice a week before onset and everyday (excluding holiday) after onset from the sensitization day. The clinical score was evaluated by the following standard scores of 0 to 5 (0: normal, 0.5: partial paralysis of tail, 1: complete paralysis of tail, 2: partial paralysis of hindlimb, 3: paralysis of lower body, 4: partial paralysis of forelimb, 5: paralysis of both forelimbs or death) by observation everyday (excluding holiday) after the beginning of onset.
The percent inhibition of the clinical score of the test compound administration group relative to that of the control group was calculated using integration value of the clinical score for 28 days.
The results (percent inhibition of clinical score with oral administration of the test compound) measured by the above-mentioned method are shown in Table 12.

Row | Compound | inhibition at 10 µM [1] [%] | percent inhibition of IL-17A gene expression ([2]; 10 mg/kg oral) [%] | percent inhibition of acanthosis score ([3]; 1 mg/kg oral twice daily) [%] | percent inhibition of ear thickness ([3]; 1 mg/kg oral twice daily) [%] | percent inhibition of IL-17A expression ([3]; 1 mg/kg oral twice daily) [%] | percent inhibition of IL-17A gene expression ([2]; 3 mg/kg oral) [%] | percent inhibition of acanthosis score ([3]; 3 mg/kg oral twice daily) [%] | percent inhibition of ear thickness ([3]; 3 mg/kg oral twice daily) [%] | percent inhibition of IL-17A expression ([3]; 3 mg/kg oral twice daily) [%] | percent inhibition of diarrhea score [4] [%] | percent inhibition of intestinal tract weight [4] [%] | percent inhibition of clinical score [5] [%]
1 | COc1ccc2c(n1)CCN(C(=O)[C@H]1C[C@@H](C(=O)O)C1)[C@H]2C(=O)Nc1cc(F)c2c(c1)CCC2(C)C [Example 10, cis-3-(((5R)-5-((7-fluoro-1,1-dimethyl-2,3-dihydro-1H-inden-5-yl)carbamoyl)-2-methoxy-7,8-dihydro-1,6-naphthyridin-6(5H)-yl)carbonyl)cyclobutanecarboxylic acid] | 89.7 | 87 | 47 | 52 | 91 | – | – | – | – | – | – | –
2 | COc1ccc2c(n1)CCN(C(=O)[C@H]1C[C@@H](CC(=O)O)C1)[C@H]2C(=O)Nc1cc(F)c2c(c1)CCC2(C)C [Example 15, (cis-3-(((5R)-5-((7-fluoro-1,1-dimethyl-2,3-dihydro-1H-inden-5-yl)carbamoyl)-2-methoxy-7,8-dihydro-1,6-naphthyridin-6(5H)-yl)carbonyl)cyclobutyl)acetic acid] | 94 | – | – | – | – | 99 | 53 | 61 | 93 | 81 | 58 | 64
